Source: patent publication US8883748B2, “Formulation for treating fungal infection” (Lifecare Innovations Pvt. Ltd., priority 2009, dated 2014)
Values after ≈ are worked out from the molar mass of the structure shown.

Legend:
Assay in all cases: In-vitro antifungal spectrum and MIC, clinical isolates
Assay type in all cases: cell-based
Microsporum gypseum = settings: for MIC: in µg/mL (unit assumed)
Method: (§1) The experiments were carried out to determine antifungal spectrum and MIC of Nanosomal Amphotericin B vis-à-vis commonly used antifungals viz.
(§2) Amphotericin B, Voriconazole, Itraconazole and Fluconazole to ascertain efficacy against pathogenic yeasts and moulds including dermatophytes.

[1] = system: Aspergillus flavus, A. fumigatus; settings: for MIC: in µg/mL (unit assumed)
Method: as §1, §2

Fusarium spp. = settings: for MIC: in µg/mL (unit assumed)
Method: as §1, §2

Pseudallescheria boydii = settings: for MIC: in µg/mL (unit assumed)
Method: as §1, §2

Aspergillus oryzae = settings: for MIC: in µg/mL (unit assumed)
Method: as §1, §2

[2] = system: Rhizopus arrhizus, R. pusilus; settings: for MIC: in µg/mL (unit assumed)
Method: as §1, §2

Candida albicans = settings: for MIC: in µg/mL (unit assumed)
Method: as §1, §2

Cryptococcus neoformans = settings: for MIC: in µg/mL (unit assumed)
Method: as §1, §2

Paeciliomyces spp. = settings: for MIC: in µg/mL (unit assumed)
Method: as §1, §2

Curvularia spp. = settings: for MIC: in µg/mL (unit assumed)
Method: as §1, §2

Sporothrix schenckii = settings: for MIC: in µg/mL (unit assumed)
Method: as §1, §2

[3] = system: Cladophialophora bantiana; settings: for MIC: in µg/mL (unit assumed)
Method: as §1, §2

[4] = system: Trichophyton mentagrophytes; settings: for MIC: in µg/mL (unit assumed)
Method: as §1, §2

Penicillium marneffei = settings: for MIC: in µg/mL (unit assumed)
Method: as §1, §2

Mucor spp. = settings: for MIC: in µg/mL (unit assumed)
Method: as §1, §2

Alternaria spp. = settings: for MIC: in µg/mL (unit assumed)
Method: as §1, §2

Apophysomyces elegans = settings: for MIC: unit assumed
Method: as §1, §2

Phialophora verrucosa = settings: for MIC: unit assumed
Method: as §1, §2

Trichophyton rubrum = settings: for MIC: in µg/mL (unit assumed)
Method: as §1, §2

Absidia corymbifera = settings: for MIC: in µg/mL (unit assumed)
Method: as §1, §2

Scytalidum dimidatum = settings: for MIC: unit assumed
Method: as §1, §2

Compound: C[C@@H]1[C@H](O)[C@@H](C)/C=C/C=C/C=C/C=C/C=C/C=C/C=C/[C@H](O[C@@H]2O[C@H](C)[C@@H](O)[C@H](N)[C@@H]2O)C[C@@H]2O[C@](O)(C[C@@H](O)C[C@@H](O)[C@H](O)CC[C@@H](O)C[C@@H](O)CC(=O)O[C@H]1C)C[C@H](O)[C@H]2C(=O)O [Amphotericin B]
- Susceptibility category (Microsporum gypseum): Active
- MIC (Microsporum gypseum): 0.5
- Susceptibility category [1]: Active
- MIC [1]: 0.5-2
- Susceptibility category (Fusarium spp.): Active
- MIC (Fusarium spp.): 0.5-1
- Susceptibility category (Pseudallescheria boydii): Active
- MIC (Pseudallescheria boydii): 0.5-1
- Susceptibility category (Aspergillus oryzae): Intermediate
- MIC (Aspergillus oryzae): 2-4
- Susceptibility category [2]: Active
- MIC [2]: 0.5-2
- Susceptibility category (Candida albicans): Active
- MIC (Candida albicans): 0.125-1
- Susceptibility category (Cryptococcus neoformans): Active
- MIC (Cryptococcus neoformans): 0.25-1
- Susceptibility category (Paeciliomyces spp.): Intermediate
- MIC (Paeciliomyces spp.): 1-4
- Susceptibility category (Curvularia spp.): Active
- MIC (Curvularia spp.): 0.125-1
- Susceptibility category (Sporothrix schenckii): Active
- MIC (Sporothrix schenckii): 0.5-1
- Susceptibility category [3]: Active
- MIC [3]: 0.5-1
- Susceptibility category [4]: Active
- MIC [4]: 0.5-2
- Susceptibility category (Penicillium marneffei): Active
- MIC (Penicillium marneffei): 0.25-1
- Susceptibility category (Mucor spp.): Active
- MIC (Mucor spp.): 1-2
- Susceptibility category (Alternaria spp.): Active
- MIC (Alternaria spp.): 1-2
- Susceptibility category (Apophysomyces elegans): Active
- MIC (Apophysomyces elegans): 2 µg/mL (≈ 2.16 µM)
- Susceptibility category (Phialophora verrucosa): Intermediate
- MIC (Phialophora verrucosa): 4 µg/mL (≈ 4.33 µM)
- Susceptibility category (Trichophyton rubrum): Active
- MIC (Trichophyton rubrum): 0.25-1
- Susceptibility category (Absidia corymbifera): Active
- MIC (Absidia corymbifera): 0.5
- Susceptibility category (Scytalidum dimidatum): Active
- MIC (Scytalidum dimidatum): 0.5 µg/mL (≈ 0.541 µM)

Compound: OC(Cn1cncn1)(Cn1cncn1)c1ccc(F)cc1F [Fluconazole]
- Susceptibility category (Microsporum gypseum): Resistant
- MIC (Microsporum gypseum): 64
- Susceptibility category [1]: Resistant
- MIC [1]: 32-64
- Susceptibility category (Fusarium spp.): Resistant
- MIC (Fusarium spp.): 16-64
- Susceptibility category (Pseudallescheria boydii): Resistant
- MIC (Pseudallescheria boydii): 8-32
- Susceptibility category (Aspergillus oryzae): Resistant
- MIC (Aspergillus oryzae): 64
- Susceptibility category [2]: Resistant
- MIC [2]: 8-64
- Susceptibility category (Candida albicans): Variable
- MIC (Candida albicans): 0.125-64
- Susceptibility category (Cryptococcus neoformans): Variable
- MIC (Cryptococcus neoformans): 0.125-16
- Susceptibility category (Paeciliomyces spp.): Resistant
- MIC (Paeciliomyces spp.): 64
- Susceptibility category (Curvularia spp.): Resistant
- MIC (Curvularia spp.): 8-64
- Susceptibility category (Sporothrix schenckii): Resistant
- MIC (Sporothrix schenckii): 8-64
- Susceptibility category [3]: Resistant
- MIC [3]: 32-64
- Susceptibility category [4]: Resistant
- MIC [4]: 32-64
- Susceptibility category (Penicillium marneffei): Resistant
- MIC (Penicillium marneffei): 32-64
- Susceptibility category (Mucor spp.): Resistant
- MIC (Mucor spp.): 64
- Susceptibility category (Alternaria spp.): Resistant
- MIC (Alternaria spp.): 32-64
- Susceptibility category (Apophysomyces elegans): Resistant
- MIC (Apophysomyces elegans): 64 µg/mL (≈ 209 µM)
- Susceptibility category (Phialophora verrucosa): Resistant
- MIC (Phialophora verrucosa): 16 µg/mL (≈ 52.2 µM)
- Susceptibility category (Trichophyton rubrum): Variable/Resistant
- MIC (Trichophyton rubrum): 4-32
- Susceptibility category (Absidia corymbifera): Resistant
- MIC (Absidia corymbifera): 64
- Susceptibility category (Scytalidum dimidatum): Resistant
- MIC (Scytalidum dimidatum): 32 µg/mL (≈ 104 µM)

Compound: CCC(C)n1ncn(-c2ccc(N3CCN(c4ccc(OCC5COC(Cn6cncn6)(c6ccc(Cl)cc6Cl)O5)cc4)CC3)cc2)c1=O (centres unmarked) [Itraconazole]
- Susceptibility category (Microsporum gypseum): Active
- MIC (Microsporum gypseum): 0.25-0.5
- MIC [1]: 0.03-16
- MIC (Fusarium spp.): 8-32
- Susceptibility category (Pseudallescheria boydii): Active
- Susceptibility category (Aspergillus oryzae): Active
- MIC (Aspergillus oryzae): 0.125-0.5
- MIC [2]: 8-16
- MIC (Candida albicans): 0.03-8
- MIC (Cryptococcus neoformans): 0.03-4
- MIC (Paeciliomyces spp.): 0.06-16
- MIC (Curvularia spp.): 8-16
- MIC (Sporothrix schenckii): 0.03-16
- Susceptibility category [3]: Active
- MIC [3]: 0.5-2
- Susceptibility category [4]: Active
- MIC [4]: 1-2
- Susceptibility category (Penicillium marneffei): Active
- MIC (Penicillium marneffei): 1-2
- MIC (Mucor spp.): 0.03-8
- Susceptibility category (Alternaria spp.): Active
- MIC (Alternaria spp.): 1-2
- MIC (Apophysomyces elegans): 16 µg/mL (≈ 22.7 µM)
- MIC (Phialophora verrucosa): 16 µg/mL (≈ 22.7 µM)
- MIC (Trichophyton rubrum): 8-16
- MIC (Absidia corymbifera): 16
- MIC (Scytalidum dimidatum): 16 µg/mL (≈ 22.7 µM)

Compound: C[C@@H](c1ncncc1F)[C@](O)(Cn1cncn1)c1ccc(F)cc1F [Voriconazole]
- Susceptibility category (Microsporum gypseum): Active
- MIC (Microsporum gypseum): 0.125-0.5
- Susceptibility category [1]: Active
- MIC [1]: 0.125-1
- Susceptibility category (Fusarium spp.): Intermediate
- MIC (Fusarium spp.): 0.5-4
- Susceptibility category (Pseudallescheria boydii): Active
- Susceptibility category (Aspergillus oryzae): Intermediate
- MIC (Aspergillus oryzae): 0.5-4
- Susceptibility category [2]: Variable
- MIC [2]: 1-8
- Susceptibility category (Candida albicans): Variable
- MIC (Candida albicans): 0.03-8
- Susceptibility category (Cryptococcus neoformans): Variable
- MIC (Cryptococcus neoformans): 0.03-16
- Susceptibility category (Paeciliomyces spp.): Variable
- MIC (Paeciliomyces spp.): 0.125-8
- Susceptibility category (Curvularia spp.): Active
- MIC (Curvularia spp.): 1-2
- Susceptibility category (Sporothrix schenckii): Variable
- MIC (Sporothrix schenckii): 0.03-16
- Susceptibility category [3]: Active
- MIC [3]: 0.25-2
- Susceptibility category [4]: Active
- MIC [4]: 0.5-1
- Susceptibility category (Penicillium marneffei): Active
- MIC (Penicillium marneffei): 0.25-1
- Susceptibility category (Mucor spp.): Resistant
- MIC (Mucor spp.): 8-16
- Susceptibility category (Alternaria spp.): Active
- MIC (Alternaria spp.): 0.5-1
- Susceptibility category (Apophysomyces elegans): Intermediate
- MIC (Apophysomyces elegans): 8 µg/mL (≈ 22.9 µM)
- Susceptibility category (Phialophora verrucosa): Active
- MIC (Phialophora verrucosa): 1 µg/mL (≈ 2.86 µM)
- Susceptibility category (Trichophyton rubrum): Active
- MIC (Trichophyton rubrum): 0.25-0.5
- Susceptibility category (Absidia corymbifera): Variable
- MIC (Absidia corymbifera): 2-16
- Susceptibility category (Scytalidum dimidatum): Active
- MIC (Scytalidum dimidatum): 0.5 µg/mL (≈ 1.43 µM)
